The IC50 is the midpoint of a concentration-inhibition curve.

The source of these data is PMC8820617, “Machine learning-driven identification of drugs inhibiting cytochrome P450 2C9” (PLoS Computational Biology, 2022).

“Also recorded” adds a separate entry of the source. Like-named read-outs stand apart in the source and are kept apart here.

The test system of data set [1] is HepG2 cells expressing CYP2C9. Briefly: Cytotoxicity (MTS assay) in HepG2 cells expressing CYP2C9. To be noted: for min [c]: minimal concentration that increases the cytotoxicity: HepG2 cells expressing CYP2C9; for min [c]: minimal concentration that increases the cytotoxicity / Increased cytotoxicity in HepG2 cells expressing CYP2C9 (yes/no): threshold cell viability 80%; for Increased cytotoxicity in HepG2 cells expressing CYP2C9 (yes/no) / % living HepG2 cells expressing CYP2C9 after incubation with the min [c]: MTS assay; for Increased cytotoxicity in HepG2 cells expressing CYP2C9 (yes/no): compared with wild-type HepG2 cells; for % living HepG2 cells expressing CYP2C9 after incubation with the min [c]: at min [c] of the compound.
Procedure: (§13) For the assessment of cell viability, “wild type” (wt) HepG2 cells (without CYP2C9) and HepG2 cells expressing the CYP2C9 enzyme were incubated with serial dilutions of selected molecules (at concentrations from 10 nM to 100 μM). Briefly, HepG2 cells were incubated in 96-well plates (2.5x 10^4 cells/mL), and the number of living cells was determined by the MTS assay according to the protocol recommended by the manufacturer (Promega, France).

In data set [2] the target is T1, CYP2C9 (Homo sapiens, UniProt P11712). In words: Inhibition of CYP2C9 activity in HepG2 cells expressing CYP2C9 (P450-Glo CYP2C9 assay with Luciferin-H). To be noted: for Inhibition of CYP2C9 activity in HepG2 cells (yes/no) / Dose-dependent inhibition (yes/no): HepG2 cells expressing CYP2C9; for Inhibition of CYP2C9 activity in HepG2 cells (yes/no): concentration range with cell viability > 80%; for Dose-dependent inhibition (yes/no): five-step dilution series 0.5 to 50 μM; for Any effect (inhibition of CYP2C9 activity and/or cytotoxicity on HepG2 cells expressing CYP2C9): over the range of concentrations used.
T1 sequence (P11712 whole entry): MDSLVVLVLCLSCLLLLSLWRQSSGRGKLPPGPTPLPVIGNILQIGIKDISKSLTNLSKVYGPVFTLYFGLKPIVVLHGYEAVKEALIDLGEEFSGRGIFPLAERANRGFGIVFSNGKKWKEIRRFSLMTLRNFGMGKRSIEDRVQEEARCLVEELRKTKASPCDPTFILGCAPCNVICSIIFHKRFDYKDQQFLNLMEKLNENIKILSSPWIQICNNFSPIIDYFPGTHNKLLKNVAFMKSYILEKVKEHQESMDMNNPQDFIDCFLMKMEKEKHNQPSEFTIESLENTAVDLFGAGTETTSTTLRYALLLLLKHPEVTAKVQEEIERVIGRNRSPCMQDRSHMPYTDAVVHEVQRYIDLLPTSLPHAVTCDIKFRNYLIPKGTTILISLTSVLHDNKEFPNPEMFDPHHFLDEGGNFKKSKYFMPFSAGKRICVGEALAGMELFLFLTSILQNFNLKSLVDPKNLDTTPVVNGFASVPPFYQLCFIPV
Procedure: (§14) The P450-Glo CYP2C9 Assays with Luciferin-H kit (Promega, France) was used to measure cytochrome P450 2C9 activity. Luciferin H is proluciferin, a derivative of beetle luciferin. This derivative is converted by the CYP2C9 enzyme to luciferin products. D-luciferin is formed and detected via a second reaction with the Luciferin Detection Reagent. The amount of light produced in the second reaction is directly proportional to CYP activity. Luciferase-free water was added in the wells reserved for background luminescence. After 4 h of incubation, the enzyme reaction was stopped by the addition of 50 μl of Luciferin Detection Reagent, which also contains the esterase needed for generation of the luminescence signal. In each plate, a standard range of beetle luciferin (from 8 nM to 224 nM) was included. The plate was finally incubated at room temperature in the dark for 30 min to stabilize the luminescence signal, which was measured using an EnSpire plate reader (Perkin Elmer).
(§15) Concentration-dependent CYP2C9 inhibition assays were performed by preparing a five-step dilution series from 0.5 (min) to 50 μM (max) of selected compounds according to the viability tests and by transferring 12.5 μl of each dilution into the assay plate. CYP2C9 activity was determined (as described above) and compared to that of untreated controls incubated with DMSO buffer alone. Each compound dilution was tested in triplicate in the inhibition assays, and the experiments were independently repeated on three different days. The data were analyzed with GraphPad Prism Version 5.03 software.
(§16) The raw data obtained from the EnSpire plate reader were processed by calculating the total luminescence (% of untreated control) using the following formula: raw data − (background luminescence) * 100/mean of untreated control. All the values were normalized to the amount of proteins extracted from fresh cells with Pierce RIPA buffer (Thermo Scientific, France). CYP2C9 enzyme activity is expressed in pmol D-luciferin.mg^-1 of protein.min^-1.

The target of data set [3] is T2, CYP2C9 supersomes (Homo sapiens, UniProt P11712). In words: Inhibition of CYP2C9 on recombinant supersomes (diclofenac 4-hydroxylation, LC/MS-MS). The settings on record: for IC50: IC50 values determined with CYP2C9 supersomes, substrate diclofenac 5 μM, recombinant supersomes. The procedure:
(§1) A CYP2C9-specific substrate (diclofenac) and recombinant supersomes were incubated with and without the study compounds (according to the protocol optimized by the Service Provider Admescope (Finland)). The concentrations of the studied compounds were 0.3, 1, 3, 10, 20, 30, 50, 60, 70, 90 and 100 μM. […] The enzymatic reactions were started after 6 min of preincubation by adding NADPH and terminated after 15 min by adding ice-cold acetonitrile. The supernatant was collected and centrifuged for analyses. The samples were analyzed by LC/MS-MS to determine the level of metabolites in the absence and presence of a candidate molecule. Spiked standard samples were not used, but quantification based on relative peak areas was performed (solvent control = 100%). The disappearance was evaluated as relative LC/MS peak areas, and the 0-min time points were marked as 100%. The disappearance rate was used to calculate the half-life and in vitro clearance. For details of the method, see S2 Text.
(§2) Details of analytical method for inhibition tests using CYP2C9 supersomes and calculation of IC50
(§3) Test compound concentrations: Test compound Test concentrations (µM)
(§4) Diclofenac at 5 µM for CYP2C9
(§5) Substrates and concentrations:
(§6) Instrumentation: Waters Acquity UPLC + Thermo TSQ Endura triple quadrupole MS
(§7) The IC50 value for the test compound was determined by fitting following equation to the data
(§8) A% = percentual activity remaining
(§9) Top = the upper plateau of percentual activity (constrained to 100)
(§10) Bottom = the lower plateau of percentual activity (constrained to 0)
(§11) [I] = inhibitor concentration
(§12) (1 picture or pasted object on this page, not shown here)

Data set [4] deals with T2, CYP2C9 supersomes. In words: Metabolism assays with recombinant CYP2C9 supersomes (UPLC/HR-MS). To be noted: incubation with recombinant CYP2C9 supersomes.
Procedure: Briefly, the studied compounds were incubated with recombinant CYP2C9 supersomes. […] The time points used in the analysis were 0, 10, 20, 40, and 60 min, and the collected samples were analyzed by UPLC/HR-MS to monitor substrate depletion. The collected samples were stored at -20°C until thawed, centrifuged and analyzed for substrate depletion by UPLC/HR-MS, and the analytical method was optimized using the parent compounds for fit-for-purpose chromatographic properties (peak shape and retention) and mass spectrometric ionization.
Data set [5] concerns the target T1, CYP2C9. Briefly: Inhibition of CYP2C9 on recombinant supersomes (diclofenac 4-hydroxylation, LC/MS-MS). The settings on record: human, recombinant CYP2C9 supersomes, probe diclofenac 5 μM (4-hydroxylation), IC50 values determined with CYP2C9 supersomes, substrate diclofenac 5 μM; recombinant supersomes. The procedure:
as §1, §2, §3, §4, §5, §6, §7, §8, §9, §10, §11, §12

In data set [6] the target is T1, CYP2C9.
Procedure: as §14, §15, §16
The subject of data set [7] is HepG2 cells expressing CYP2C9. To be noted: human.
Procedure: as §13

T2 sequence (P11712 whole entry): as above

Consider `CN(c1ncccc1CNc1nc(Nc2ccc3c(c2)CC(=O)N3)ncc1C(F)(F)F)S(C)(=O)=O` [Pf-562271], for which, in data set [1], the “min [c]: minimal concentration that increases the cytotoxicity” value turned out to be 10 µM, the “Increased cytotoxicity in HepG2 cells expressing CYP2C9 (yes/no)” value (shortened to “Increased cytotoxicity … (yes/no)”) is recorded as “yes” and the “% living HepG2 cells expressing CYP2C9 after incubation with the min [c]” value (“% living HepG2 cells expressing CYP2C9” for short) stood at 65%. Further, in data set [2], the “Inhibition of CYP2C9 activity in HepG2 cells (yes/no)” value (“Inhibition … in HepG2 cells (yes/no)” below) is on record as “yes” and the “Dose-dependent inhibition (yes/no)” value is on record as “no”.
On to `O=C1NCCN1CCN1CCC(c2cn(-c3ccc(F)cc3)c3ccc(Cl)cc23)CC1` [Sertindole], for which, in data set [1], the “min [c]: minimal concentration that increases the cytotoxicity” value came out at 10 µM, the “Increased cytotoxicity … (yes/no)” value is listed as “yes” and the “% living HepG2 cells expressing CYP2C9” value came out at 60%. Also, in data set [3], the IC50 came to 40 µM. In data set [2], the “Inhibition … in HepG2 cells (yes/no)” value is “yes” and the “Dose-dependent inhibition (yes/no)” value was “yes”.
Take `CCCSc1nc(N[C@@H]2C[C@H]2c2ccc(F)c(F)c2)c2nnn([C@@H]3C[C@H](OCCO)[C@@H](O)[C@H]3O)c2n1` [Ticagrelor]: in data set [1], the “Increased cytotoxicity … (yes/no)” value is reported as “no”. Further, the IC50 in data set [3] worked out at 11.8 µM. In data set [2], the “Inhibition … in HepG2 cells (yes/no)” value is “yes” and the “Dose-dependent inhibition (yes/no)” value is given as “yes”.
Regarding `Cc1nc(Nc2ncc(C(=O)Nc3c(C)cccc3Cl)s2)cc(N2CCN(CCO)CC2)n1` [Dasatinib], in data set [1], the “min [c]: minimal concentration that increases the cytotoxicity” value came to 20 µM, the “Increased cytotoxicity … (yes/no)” value is given as “yes” and the “% living HepG2 cells expressing CYP2C9” value is given as 45%. In addition, in data set [2], the “Inhibition … in HepG2 cells (yes/no)” value was “yes” and the “Dose-dependent inhibition (yes/no)” value is on record as “yes”.
In the case of `CN(c1nccc(=O)[nH]1)C1CCN(c2nc3ccccc3n2Cc2ccc(F)cc2)CC1` [Mizolastine], in data set [1], the “min [c]: minimal concentration that increases the cytotoxicity” value amounted to 50 µM, the “Increased cytotoxicity … (yes/no)” value was “yes” and the “% living HepG2 cells expressing CYP2C9” value is 60%. Moreover, in data set [2], the “Inhibition … in HepG2 cells (yes/no)” value is “no” and the “Dose-dependent inhibition (yes/no)” value is reported as “no”.
Regarding Ciltoprazine, in data set [1], the “min [c]: minimal concentration that increases the cytotoxicity” value turned out to be 75 µM, the “Increased cytotoxicity … (yes/no)” value is reported as “yes” and the “% living HepG2 cells expressing CYP2C9” value was 0%. Further, in data set [2], the “Inhibition … in HepG2 cells (yes/no)” value is listed as “yes” and the “Dose-dependent inhibition (yes/no)” value is reported as “no”.
Consider `O=c1[nH]c2ccccc2c(=O)n1CCCN1CCN(c2cccc(Cl)c2)CC1` [Cloperidone], for which, in data set [1], the “Cytotoxicity after incubation with HepG2 cells expressing CYP2C9 (in words)” value is “increased cytotoxicity”, the “min [c]: minimal concentration that increases the cytotoxicity” value came out at 100 µM, the “Increased cytotoxicity … (yes/no)” value is recorded as “yes” and the “% living HepG2 cells expressing CYP2C9” value worked out at 40%. Also, the “Inhibition effect on CYP2C9 (in words)” value in data set [3] (CYP2C9 supersomes) is given as “strongly inhibit”. The IC50 in data set [3] amounted to 17.7 µM. In addition, in data set [2], the “Inhibition … in HepG2 cells (yes/no)” value was “yes” and the “Dose-dependent inhibition (yes/no)” value was “yes”. The “Metabolism by CYP2C9 (in words)” value in data set [4] was “metabolized by CYP2C9”.
As for `CC(C)Oc1ccc(S(=O)(=O)N2CCN(c3ccc(-c4ncco4)c(OCC(=O)O)c3)CC2)cc1` [Asapiprant], the “Increased cytotoxicity … (yes/no)” value in data set [1] is “no”. The IC50 in data set [3] is 46 µM. In addition, in data set [2], the “Inhibition … in HepG2 cells (yes/no)” value was “yes” and the “Dose-dependent inhibition (yes/no)” value was “yes”.
Take `Clc1ccc(Nc2nnc(Cc3ccncc3)c3ccccc23)cc1` [Vatalanib]: in data set [1], the “min [c]: minimal concentration that increases the cytotoxicity” value was 20 µM, the “Increased cytotoxicity … (yes/no)” value is recorded as “yes” and the “% living HepG2 cells expressing CYP2C9” value turned out to be 50%. Also, the “Inhibition effect on CYP2C9 (in words)” value in data set [3] (CYP2C9 supersomes) is “strongly inhibit”. Besides, the IC50 in data set [3] was < 18 µM. The IC50 at 15 min in data set [5] was < 0.3 µM. Also, in data set [2], the “Inhibition … in HepG2 cells (yes/no)” value was “yes” and the “Dose-dependent inhibition (yes/no)” value is “yes”. Besides, the “Metabolism by CYP2C9 (in words)” value in data set [4] was “metabolized by CYP2C9”.
As to `CC(C)(C)C(=O)Oc1ccc(S(=O)(=O)Nc2ccccc2C(=O)NCC(=O)O)cc1` [Sivelestat], the “Increased cytotoxicity … (yes/no)” value in data set [1] is “no”. Moreover, in data set [2], the “Inhibition … in HepG2 cells (yes/no)” value was “no”, the “Dose-dependent inhibition (yes/no)” value is on record as “no” and the “Any effect (inhibition of CYP2C9 activity and/or cytotoxicity on HepG2 cells expressing CYP2C9)” value is recorded as “did not show any effect”.
As to `COc1ccc(OC(=O)N(CC(=O)O)Cc2ccc(OCCc3nc(-c4ccccc4)oc3C)cc2)cc1` [Muraglitazar], the “Increased cytotoxicity … (yes/no)” value in data set [1] was “no”. In addition, in data set [2], the “Inhibition … in HepG2 cells (yes/no)” value is “no”, the “Dose-dependent inhibition (yes/no)” value is reported as “no” and the “Any effect (inhibition of CYP2C9 activity and/or cytotoxicity on HepG2 cells expressing CYP2C9)” value is “did not show any effect”.
In the case of Bifeprofen, in data set [1], the “min [c]: minimal concentration that increases the cytotoxicity” value was 75 µM, the “Increased cytotoxicity … (yes/no)” value was “yes” and the “% living HepG2 cells expressing CYP2C9” value is on record as 50%. Further, in data set [2], the “Inhibition … in HepG2 cells (yes/no)” value is on record as “yes” and the “Dose-dependent inhibition (yes/no)” value is “yes”.
As for `CCN1CCN(Cc2ccc(Nc3ncc(F)c(-c4cc(F)c5nc(C)n(C(C)C)c5c4)n3)nc2)CC1` [Abemaciclib], in data set [1], the “min [c]: minimal concentration that increases the cytotoxicity” value amounted to 5 µM, the “Increased cytotoxicity … (yes/no)” value is recorded as “yes” and the “% living HepG2 cells expressing CYP2C9” value is 30%. In addition, the “Inhibition effect on CYP2C9 (in words)” value in data set [3] (CYP2C9 supersomes) was “no direct inhibition; also recorded: No any inhibition effect”. The IC50 in data set [3] is > 100 µM. Further, in data set [2], the “Inhibition … in HepG2 cells (yes/no)” value is recorded as “no” and the “Dose-dependent inhibition (yes/no)” value is “no”. In addition, the “Metabolism by CYP2C9 (in words)” value in data set [4] is “metabolized by CYP2C9”.
As to `Cc1ccccc1-n1c(/C=C/c2ccccn2)nc2ccccc2c1=O` [Piriqualone], in data set [1], the “min [c]: minimal concentration that increases the cytotoxicity” value amounted to 75 µM, the “Increased cytotoxicity … (yes/no)” value was “yes” and the “% living HepG2 cells expressing CYP2C9” value amounted to 0%. In addition, the IC50 in data set [3] amounted to 10.9 µM. Moreover, in data set [2], the “Inhibition … in HepG2 cells (yes/no)” value is “yes” and the “Dose-dependent inhibition (yes/no)” value is “yes”.
Regarding `C[C@H](Nc1ncnc2[nH]cnc12)c1cc2cccc(Cl)c2c(=O)n1-c1ccccc1` [Duvelisib], the “Increased cytotoxicity … (yes/no)” value in data set [1] is on record as “no”. For the same molecule, the IC50 in data set [3] worked out at 52 µM. In addition, in data set [2], the “Inhibition … in HepG2 cells (yes/no)” value was “yes” and the “Dose-dependent inhibition (yes/no)” value is recorded as “yes”.
Regarding `O=C(O[C@H]1CN2CCC1CC2)N(Cc1cc(F)c(F)c(F)c1)c1cccc(F)c1` [Tarafenacin], in data set [6], the “Dose-dependent inhibition (yes/no)” value is given as “no” and the “Inhibition … in HepG2 cells (yes/no)” value is recorded as “yes”. Besides, in data set [3], the IC50 is > 100 µM. Besides, the “Inhibition effect on CYP2C9 (in words)” value in data set [3] (recombinant enzyme) was “weak inhibition effect”. Also, in data set [7], the “% living HepG2 cells expressing CYP2C9” value is 0% and the “min [c]: minimal concentration that increases the cytotoxicity” value came to 50 µM.
Turning to `CC(=O)N1CCN(CCOc2ccc(C3CCN(C4=Nn5c(nnc5C(F)(F)F)CC4)CC3)cc2)CC1` [Azd3514], in data set [1], the “min [c]: minimal concentration that increases the cytotoxicity” value is 20 µM, the “Increased cytotoxicity … (yes/no)” value is “yes” and the “% living HepG2 cells expressing CYP2C9” value was found to be 60%. For the same molecule, in data set [2], the “Inhibition … in HepG2 cells (yes/no)” value was “no” and the “Dose-dependent inhibition (yes/no)” value is “no”.
